Test system: active D-proline reductase
Test: Conversion of D-proline analog substrates by E. coli cells expressing active D-proline reductase (PrdA, PrdB, PrdH), TLC analysis
Assay type: biochemical, Peptoclostridium difficile 630
Conditions: substrate 10 mM, DTT 25 mM, 6 hours, E. coli BL21(DE3) cells OD 50 in 0.1 M phosphate buffer pH 8.0, TLC
Description: The obtained E. coli cells were adjusted to a final OD of 50, followed by centrifugation. After primary washing, E. coli cells were diluted with 1 mL of 0.1 M phosphate buffer (pH 8.0). Next, each 200 ul of the diluted samples was dispensed, and DTT (final concentration of 25 mM) and various substrates (final concentration of 10 mM, FIG. 11A) were added and allowed to react for 6 hours, followed by TLC analysis.
When cis-4-hydroxy-D-proline or trans-4-hydroxy-D-proline is subjected to the conversion reaction, 5-amino-4-hydroxypentanoic acid is produced.

Compound | product formation on TLC after the conversion reaction | reaction rate of the conversion by D-proline reductase, compared with D-proline
O=C(O)[C@H]1CCN1 [D-azetidine-2-carboxylic acid] | GABA production was clearly observed on TLC | relatively low reaction rate, as compared with D-proline
O=C(O)[C@H]1C[C@@H](O)CN1 [cis-4-hydroxy-D-proline] | substrate reduction on TLC and newly formed TLC spot were observed | relatively low reaction rate, as compared with D-proline
O=C(O)[C@H]1C[C@H](O)CN1 [trans-4-hydroxy-D-proline] | substrate reduction on TLC and newly formed TLC spot were observed | relatively low reaction rate, as compared with D-proline

Reference: patent publication US11708564B2 (priority 2017, dated 2023)
